Tested on: Mouse colon cancer CT26 cells
Assay: CT26 cells with IN10018 and Lurbinectedin: microscope and flow cytometry for CRT / Annexin V (Example 2)
Format: cell-based
Settings: CT26, 48 hours; IN10018 5 μM, Lurbinectedin 0.00142 μM
Method: Mouse colon cancer CT26 cells (Insitute of Biochemistry and Cell Biology) were cultured with RPMI-1640 (Shanghai Basalmedia, classification number: L210KJ, batch number: F210916)+10% FBS (Gibco, classification number: 10099-141c, batch number: 2158737cp) and passaged twice. When the cells were in good condition, the culture solution was placed in a 24-well plate. After the cells were spread for 24 hours, four groups were set up, wherein the first group was a control group, and the culture medium was added; the second group was IN10018 with a concentration of 5 μM; the third group was Lurbinectedin (DC chemicals, classification number: DC12502, batch number: DC1250203) with a concentration of 0.00142 μM; and the fourth group was IN10018 (5 μM) combined with Lurbinectedin (0.00142 μM). The drugs were mixed and the mixture was cultured in a 5% CO2 incubator at 37° C. for 48 hours.
After 48 hours of drug action, the cells were observed under a microscope and photographed, and the photos were kept. Then the cells were collected, subjected to flow analysis, and washed twice with flow buffer (PBS+2% FBS). 0.5 μl of AF647 anti-Calreticulin antibody (abcam, classification number: ab196159, batch number: CR33676773) was added to each well and fully mixed. […] The mixture was cultured at room temperature in the dark for 15 minutes, and then analyzed by flow cytometry.

COc1cc(C(=O)NC2CCN(C)CC2)c(F)cc1Nc1ncc(C(F)(F)F)c(Oc2cccc3c2C(=O)N(C)C3)n1 [IN10018]
cell state under a microscope: good
